What was measured:
BAF/Tel-Syk-1.1/sACP = target: T1, BAF/Tel-Syk-1.1/sACP (Homo sapiens, UniProt P43405); experiment: BaF3 proliferation assay; type: cell-based, murine
T1 construct: fused on or other part: P41212 (Transcription factor ETV6)

human macrophages = experiment: CSF-1 and IL-34 mediated macrophage survival; type: cell-based; conditions: 0.1 to 10 μM; 4 donors
Description: (§1) Freshly isolated human PBMCs were used to purify human monocytes by negative selection using an indirect magnetic labeling system. […] Soluble factors such as cytokines (VEGFa, IL-6 etc.) and chemokines (IL-8, MCP-1, MMP9 etc.) in the culture supernatant were measured using commercial ELISA kits. The in vitro survival of human macrophages was measured using a commercially available CellTiter-Glo® system. Most observed results were repeated in multiple donors (n>5).
A dose range (0 to 100 ng/ml) of CSF-1 or IL-34 was tested and macrophage survival positively correlated with increasing dose of CSF-1 or IL-34 with no difference between the 2 factors observed.

PAK1 = PAK1 (Homo sapiens, UniProt Q13153); experiment: In vitro kinase assay (Table 1); type: biochemical
PAK1, sequence (Q13153 whole entry): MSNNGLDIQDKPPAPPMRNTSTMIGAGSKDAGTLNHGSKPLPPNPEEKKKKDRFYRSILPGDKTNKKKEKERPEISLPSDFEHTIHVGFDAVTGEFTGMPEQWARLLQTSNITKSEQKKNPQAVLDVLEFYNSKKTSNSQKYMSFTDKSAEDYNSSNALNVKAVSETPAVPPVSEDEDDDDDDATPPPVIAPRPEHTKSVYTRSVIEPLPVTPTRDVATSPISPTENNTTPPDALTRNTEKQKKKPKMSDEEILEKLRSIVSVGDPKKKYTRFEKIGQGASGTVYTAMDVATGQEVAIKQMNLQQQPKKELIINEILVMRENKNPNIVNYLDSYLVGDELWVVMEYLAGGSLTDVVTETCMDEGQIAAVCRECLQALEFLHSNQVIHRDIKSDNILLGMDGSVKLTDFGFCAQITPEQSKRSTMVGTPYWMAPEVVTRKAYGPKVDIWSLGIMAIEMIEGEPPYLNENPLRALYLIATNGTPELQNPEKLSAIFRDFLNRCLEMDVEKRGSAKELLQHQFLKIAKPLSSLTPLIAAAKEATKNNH

BaF-Tel-IGF1R = target: T2, BaF-Tel-IGF1R (Homo sapiens, UniProt P08069); experiment: BaF3 proliferation assay; type: cell-based, murine
T2 construct: fused on or other part: P41212 (Transcription factor ETV6)
T2 sequence (P08069 999-1274 limits assumed, change not shown): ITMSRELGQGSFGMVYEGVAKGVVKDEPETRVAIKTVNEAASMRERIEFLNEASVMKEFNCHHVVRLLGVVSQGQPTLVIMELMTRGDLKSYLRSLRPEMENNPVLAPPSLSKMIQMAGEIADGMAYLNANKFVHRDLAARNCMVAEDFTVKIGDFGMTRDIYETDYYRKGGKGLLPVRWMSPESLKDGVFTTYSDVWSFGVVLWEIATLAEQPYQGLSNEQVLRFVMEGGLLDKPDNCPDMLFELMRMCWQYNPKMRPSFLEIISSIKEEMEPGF

RAF1_4_CR = RAF1_4_CR (Homo sapiens, UniProt P04049); experiment: In vitro kinase assay (Table 1); type: biochemical
BaF3-Tel-JAK2; clone1 = target: T3, BaF3-Tel-JAK2; clone1 (Homo sapiens, UniProt O60674); experiment: BaF3 proliferation assay; type: cell-based, murine
T3 construct: fused on or other part: P41212 (Transcription factor ETV6)

ZAP70 = ZAP70 (Homo sapiens, UniProt P43403); experiment: In vitro kinase assay (Table 1); type: biochemical
ROS = ROS (Homo sapiens, UniProt P08922); experiment: In vitro kinase assay (Table 1); type: biochemical
PAK2 = PAK2 (Homo sapiens, UniProt Q13177); experiment: In vitro kinase assay (Table 1); type: biochemical
PAK2, sequence (Q13177 whole entry, species assumed): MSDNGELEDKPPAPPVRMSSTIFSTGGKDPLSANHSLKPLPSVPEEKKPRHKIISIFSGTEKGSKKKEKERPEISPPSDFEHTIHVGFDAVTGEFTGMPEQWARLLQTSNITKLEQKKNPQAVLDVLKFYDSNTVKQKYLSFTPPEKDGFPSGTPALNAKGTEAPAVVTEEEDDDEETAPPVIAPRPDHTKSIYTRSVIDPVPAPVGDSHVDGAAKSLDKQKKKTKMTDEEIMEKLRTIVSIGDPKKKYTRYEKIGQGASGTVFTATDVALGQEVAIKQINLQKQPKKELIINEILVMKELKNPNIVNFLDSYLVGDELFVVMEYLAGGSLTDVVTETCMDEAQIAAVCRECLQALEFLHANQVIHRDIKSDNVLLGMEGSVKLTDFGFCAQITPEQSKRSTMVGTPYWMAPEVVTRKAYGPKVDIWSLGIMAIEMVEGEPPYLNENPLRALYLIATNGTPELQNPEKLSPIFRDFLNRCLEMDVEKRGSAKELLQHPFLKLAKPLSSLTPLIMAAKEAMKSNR

BAF/bRaf Pim1-1/sACP = experiment: BaF3 proliferation assay; type: cell-based, murine; conditions: Mus musculus
BAF/Tel-FGFR3-Q2/sACP = target: T4, BAF/Tel-FGFR3-Q2/sACP (Homo sapiens, UniProt P22607); experiment: BaF3 proliferation assay; type: cell-based, murine
T4 construct: fused on or other part: P41212 (Transcription factor ETV6)

BAF/Tel-FGFR2-Q1/sACP = target: T5, BAF/Tel-FGFR2-Q1/sACP (Homo sapiens, UniProt P21802); experiment: BaF3 proliferation assay; type: cell-based, murine
T5 construct: fused on or other part: P41212 (Transcription factor ETV6)

KDR = KDR (Homo sapiens, UniProt P35968); experiment: In vitro kinase assay (Table 1); type: biochemical; conditions: KDR=VEGF receptor
KDR, sequence (P35968 20-1356, species assumed): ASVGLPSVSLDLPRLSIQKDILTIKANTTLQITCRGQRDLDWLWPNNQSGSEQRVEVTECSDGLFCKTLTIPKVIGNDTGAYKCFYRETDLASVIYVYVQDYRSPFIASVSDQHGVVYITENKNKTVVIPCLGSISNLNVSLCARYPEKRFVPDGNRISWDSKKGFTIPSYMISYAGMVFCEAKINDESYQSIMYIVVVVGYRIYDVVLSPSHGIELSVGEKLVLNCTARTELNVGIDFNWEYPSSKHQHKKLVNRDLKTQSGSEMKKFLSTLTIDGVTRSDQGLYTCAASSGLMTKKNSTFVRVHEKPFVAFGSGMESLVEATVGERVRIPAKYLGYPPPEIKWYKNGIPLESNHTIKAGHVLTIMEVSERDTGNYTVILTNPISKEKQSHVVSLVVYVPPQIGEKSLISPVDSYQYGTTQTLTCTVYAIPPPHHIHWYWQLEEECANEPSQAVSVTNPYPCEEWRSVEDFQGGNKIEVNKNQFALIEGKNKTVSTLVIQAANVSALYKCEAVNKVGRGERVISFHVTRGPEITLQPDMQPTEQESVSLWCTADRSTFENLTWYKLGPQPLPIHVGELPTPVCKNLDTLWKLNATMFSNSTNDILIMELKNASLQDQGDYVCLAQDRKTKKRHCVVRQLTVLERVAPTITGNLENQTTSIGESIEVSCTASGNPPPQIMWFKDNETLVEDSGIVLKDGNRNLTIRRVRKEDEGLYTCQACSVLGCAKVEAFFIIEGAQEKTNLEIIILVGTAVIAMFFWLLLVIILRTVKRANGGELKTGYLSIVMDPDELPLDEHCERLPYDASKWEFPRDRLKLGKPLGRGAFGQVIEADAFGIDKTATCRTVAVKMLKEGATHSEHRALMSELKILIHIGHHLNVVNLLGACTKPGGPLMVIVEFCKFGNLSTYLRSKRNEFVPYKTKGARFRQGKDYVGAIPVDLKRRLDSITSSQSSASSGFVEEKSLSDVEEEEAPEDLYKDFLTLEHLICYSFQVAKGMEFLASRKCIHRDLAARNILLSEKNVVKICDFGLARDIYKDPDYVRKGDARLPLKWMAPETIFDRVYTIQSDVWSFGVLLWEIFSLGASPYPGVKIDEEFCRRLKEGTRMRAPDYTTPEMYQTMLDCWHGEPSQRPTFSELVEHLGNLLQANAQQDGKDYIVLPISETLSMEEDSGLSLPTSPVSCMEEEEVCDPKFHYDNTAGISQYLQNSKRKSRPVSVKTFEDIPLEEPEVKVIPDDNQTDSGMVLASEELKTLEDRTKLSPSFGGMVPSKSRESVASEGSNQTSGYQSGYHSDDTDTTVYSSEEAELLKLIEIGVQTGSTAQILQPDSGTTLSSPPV

smMLCK = smMLCK (Homo sapiens, UniProt Q15746); experiment: In vitro kinase assay (Table 1); type: biochemical
Src = Src (Homo sapiens, UniProt P12931); experiment: In vitro kinase assay (Table 1); type: biochemical
Src, sequence (P12931 whole entry, species assumed): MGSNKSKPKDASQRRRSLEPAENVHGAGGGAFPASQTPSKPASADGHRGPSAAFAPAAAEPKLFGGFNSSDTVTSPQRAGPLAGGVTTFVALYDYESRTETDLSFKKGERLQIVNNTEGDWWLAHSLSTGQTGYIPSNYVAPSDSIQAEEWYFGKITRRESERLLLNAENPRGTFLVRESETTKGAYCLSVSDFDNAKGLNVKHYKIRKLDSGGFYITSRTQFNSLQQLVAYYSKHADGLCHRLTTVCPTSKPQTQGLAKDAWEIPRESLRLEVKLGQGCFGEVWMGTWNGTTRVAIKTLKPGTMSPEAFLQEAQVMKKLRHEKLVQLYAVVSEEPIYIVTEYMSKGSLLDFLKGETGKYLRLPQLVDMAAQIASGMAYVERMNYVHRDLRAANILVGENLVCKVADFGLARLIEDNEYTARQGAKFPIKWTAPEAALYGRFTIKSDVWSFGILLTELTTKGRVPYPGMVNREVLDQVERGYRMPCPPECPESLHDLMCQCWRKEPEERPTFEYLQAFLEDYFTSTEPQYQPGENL

BAF/Tel-RON-4.1/sACP = target: T6, BAF/Tel-RON-4.1/sACP (Homo sapiens, UniProt Q04912); experiment: BaF3 proliferation assay; type: cell-based, murine
T6 construct: fused on or other part: P41212 (Transcription factor ETV6)

IGF-1R = IGF-1R (Homo sapiens, UniProt P08069); experiment: In vitro kinase assay (Table 1); type: biochemical
VEGFa = VEGFa production by human macrophages; type: cell-based; conditions: stimulation with MCSF or IL-34
Description: as §1
Activated human macrophages are a source of VEGFa. Human macrophages produce VEGFa following stimulation with MCSF or IL-34.

BAF/Tel-Lck-2.1/sACP = target: T7, BAF/Tel-Lck-2.1/sACP (Homo sapiens, UniProt P06239); experiment: BaF3 proliferation assay; type: cell-based, murine
T7 construct: fused on or other part: P41212 (Transcription factor ETV6)

Jak2 = Jak2 (Homo sapiens, UniProt O60674); experiment: In vitro kinase assay (Table 1); type: biochemical
BAF/Tel-Lyn-1.2/sACP = target: T8, BAF/Tel-Lyn-1.2/sACP (Homo sapiens, UniProt P07948); experiment: BaF3 proliferation assay; type: cell-based, murine
T8 construct: fused on or other part: P41212 (Transcription factor ETV6)

Plk1 = Plk1 (Homo sapiens, UniProt P53350); experiment: In vitro kinase assay (Table 1); type: biochemical
Abl = Abl (Homo sapiens, UniProt P00519); experiment: In vitro kinase assay (Table 1); type: biochemical
BAF/Tel-JAK1-S1.2/sACP = target: T9, BAF/Tel-JAK1-S1.2/sACP (Homo sapiens, UniProt P23458); experiment: BaF3 proliferation assay; type: cell-based, murine
T9 construct: fused on or other part: P41212 (Transcription factor ETV6)

TSSK1 = TSSK1 (Homo sapiens, UniProt Q9BXA7); experiment: In vitro kinase assay (Table 1); type: biochemical
PIK3Cbeta = PIK3Cbeta (Homo sapiens, UniProt P42338); experiment: In vitro kinase assay (Table 1); type: biochemical
VEGF = experiment: Interaction with VEGF versus CSF-1 receptor signaling; conditions: at concentrations where the signaling of the CSF-1 receptor is strongly or completely inhibited
BaF3-Tel-INSR 1.2 = target: T10, BaF3-Tel-INSR 1.2 (Homo sapiens, UniProt P06213); experiment: BaF3 proliferation assay; type: cell-based, murine
T10 construct: fused on or other part: P41212 (Transcription factor ETV6)

Hck = Hck (Homo sapiens, UniProt P08631); experiment: In vitro kinase assay (Table 1); type: biochemical
Hck, sequence (P08631 whole entry, species assumed): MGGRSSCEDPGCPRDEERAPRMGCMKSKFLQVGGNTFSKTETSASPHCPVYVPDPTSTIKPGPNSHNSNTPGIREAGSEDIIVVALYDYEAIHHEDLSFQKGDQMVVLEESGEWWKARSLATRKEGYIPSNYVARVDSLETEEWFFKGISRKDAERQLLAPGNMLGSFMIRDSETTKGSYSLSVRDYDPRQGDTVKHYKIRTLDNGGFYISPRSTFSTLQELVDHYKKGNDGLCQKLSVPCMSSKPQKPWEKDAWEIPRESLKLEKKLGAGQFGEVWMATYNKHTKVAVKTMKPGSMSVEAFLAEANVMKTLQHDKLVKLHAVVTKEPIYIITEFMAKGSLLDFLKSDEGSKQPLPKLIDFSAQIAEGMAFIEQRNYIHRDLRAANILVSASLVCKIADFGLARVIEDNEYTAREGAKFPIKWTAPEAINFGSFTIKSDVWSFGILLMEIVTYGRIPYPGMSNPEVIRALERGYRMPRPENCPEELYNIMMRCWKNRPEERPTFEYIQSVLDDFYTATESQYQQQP

FGFR1 = FGFR1 (Homo sapiens, UniProt P11362); experiment: In vitro kinase assay (Table 1); type: biochemical
BaF-Tel-FGFR3 = target: T11, BaF-Tel-FGFR3 (Homo sapiens, UniProt P22607); experiment: BaF3 proliferation assay; type: cell-based, murine
T11 construct: fused on or other part: P41212 (Transcription factor ETV6)

Dyrk3 = Dyrk3 (Homo sapiens, UniProt O43781); experiment: In vitro kinase assay (Table 1); type: biochemical
Dyrk3, sequence (O43781 whole entry, species assumed): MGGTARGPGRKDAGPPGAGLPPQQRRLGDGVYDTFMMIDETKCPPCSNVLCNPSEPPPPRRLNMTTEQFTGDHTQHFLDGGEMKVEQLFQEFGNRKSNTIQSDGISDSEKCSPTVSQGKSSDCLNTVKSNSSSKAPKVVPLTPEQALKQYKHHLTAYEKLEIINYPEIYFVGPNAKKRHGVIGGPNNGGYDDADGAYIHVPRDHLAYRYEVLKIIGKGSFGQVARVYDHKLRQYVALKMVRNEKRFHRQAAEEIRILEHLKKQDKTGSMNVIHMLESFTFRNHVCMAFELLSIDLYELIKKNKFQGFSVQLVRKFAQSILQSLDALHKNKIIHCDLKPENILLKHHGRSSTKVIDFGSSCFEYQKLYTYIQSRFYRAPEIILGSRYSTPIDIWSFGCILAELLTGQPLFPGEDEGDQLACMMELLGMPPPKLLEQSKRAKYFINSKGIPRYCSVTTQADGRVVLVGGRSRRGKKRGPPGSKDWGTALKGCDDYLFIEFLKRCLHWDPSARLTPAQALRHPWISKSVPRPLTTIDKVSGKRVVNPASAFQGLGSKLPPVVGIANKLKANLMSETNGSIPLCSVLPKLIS

BAF/Tel-FGFR4-Q4/sACP = target: T12, BAF/Tel-FGFR4-Q4/sACP (Homo sapiens, UniProt P22455); experiment: BaF3 proliferation assay; type: cell-based, murine
T12 construct: fused on or other part: P41212 (Transcription factor ETV6)

PDK_1 = PDK_1 (Homo sapiens, UniProt O15530); experiment: In vitro kinase assay (Table 1); type: biochemical
PDK_1, sequence (O15530 whole entry): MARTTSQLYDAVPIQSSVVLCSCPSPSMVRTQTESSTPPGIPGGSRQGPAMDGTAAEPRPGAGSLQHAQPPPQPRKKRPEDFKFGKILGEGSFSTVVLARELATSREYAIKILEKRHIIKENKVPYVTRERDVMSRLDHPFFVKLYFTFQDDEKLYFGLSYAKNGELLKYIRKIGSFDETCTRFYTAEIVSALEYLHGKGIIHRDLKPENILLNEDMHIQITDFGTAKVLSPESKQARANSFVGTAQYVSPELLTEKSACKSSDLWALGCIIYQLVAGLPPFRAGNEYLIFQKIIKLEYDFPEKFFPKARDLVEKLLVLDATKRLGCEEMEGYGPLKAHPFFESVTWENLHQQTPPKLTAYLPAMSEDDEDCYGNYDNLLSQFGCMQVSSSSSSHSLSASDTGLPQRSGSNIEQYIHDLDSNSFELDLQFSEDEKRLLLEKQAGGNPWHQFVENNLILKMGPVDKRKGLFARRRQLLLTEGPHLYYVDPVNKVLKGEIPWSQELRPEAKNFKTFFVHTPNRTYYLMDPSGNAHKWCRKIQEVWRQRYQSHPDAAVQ

Pim2 = Pim2 (Homo sapiens, UniProt Q9P1W9); experiment: In vitro kinase assay (Table 1); type: biochemical

CNC(=O)c1cc(Oc2ccc3nc(NC4CCCCC4O)sc3c2)ccn1 (stereo not drawn) [Compound (I)]
not to interact strongly: interaction with VEGF (VEGF)
significantly affects: CSF-1 mediated macrophage survival (human macrophages) | IL-34 mediated macrophage survival (human macrophages)
> 10 µM: EC50 (BAF/Tel-Syk-1.1/sACP) | EC50 (BaF-Tel-IGF1R) | EC50 (BaF3-Tel-JAK2; clone1) | IC50 (ZAP70) | IC50 (ROS) | EC50 (BAF/bRaf Pim1-1/sACP) | EC50 (BAF/Tel-FGFR3-Q2/sACP) | EC50 (BAF/Tel-FGFR2-Q1/sACP) | IC50 (smMLCK) | IC50 (Src) | EC50 (BAF/Tel-RON-4.1/sACP) | IC50 (IGF-1R) | EC50 (BAF/Tel-Lck-2.1/sACP) | EC50 (BAF/Tel-Lyn-1.2/sACP) | IC50 (Abl) | EC50 (BAF/Tel-JAK1-S1.2/sACP) | IC50 (TSSK1) | EC50 (BaF3-Tel-INSR 1.2) | IC50 (Hck) | EC50 (BaF-Tel-FGFR3) | IC50 (Dyrk3) | EC50 (BAF/Tel-FGFR4-Q4/sACP)
significantly decreased: VEGFa levels of human macrophages (VEGFa)
> 25 µM: IC50 (PAK1) | IC50 (RAF1_4_CR) | IC50 (PAK2) | IC50 (KDR) | IC50 (Jak2) | IC50 (Plk1) | IC50 (PIK3Cbeta) | IC50 (FGFR1) | IC50 (PDK_1) | IC50 (Pim2)
